≈ marks a conversion by molar mass, not a printed value. Calls of active or inactive are those of the source. The calls are words filed in the database; no cut-off is given here.
Key:
Diaphorina citri [1] = assay: Ovicidal activity against Diaphorina citri in 2 to 3 months old citrus plant assessed as inhibition of egg hatch measured 0 to 48 hr after egg laying by leaf dip bioassay; assay type: functional
Diaphorina citri [2] = assay: Induction of morphological abnormalities of fourth and fifth-instar nymphs of Diaphorina citri in flush of citrus plants at 32 to 64 ug/ml after 48 hr; assay type: functional, organism-based
Diaphorina citri [3] = assay: Inhibition of reproduction in fifth-instar nymphs of Diaphorina citri in flush of citrus plants assessed as fecundity of egg at 100 ug/ml applied topically; assay type: functional, organism-based
Diaphorina citri [4] = assay: Ovicidal activity against Diaphorina citri in 2 to 3 months old citrus plant assessed as inhibition of old egg hatch at 64 ug/mL by residual contact bioassay; assay type: functional
Diaphorina citri [5] = assay: Inhibition of reproduction in fifth-instar nymphs of Diaphorina citri in flush of citrus plants assessed as fecundity of egg at 100 ug/ml measured 0 to 3 days after emergence; assay type: functional, organism-based
Diaphorina citri [6] = assay: Inhibition of reproduction in fifth-instar nymphs of Diaphorina citri in flush of citrus plants assessed as viability of egg at 64 ug/ml measured 7 to 9 days after emergence relative to control; assay type: functional
Diaphorina citri [7] = assay: Inhibition of reproduction in fifth-instar nymphs of Diaphorina citri in flush of citrus plants assessed as viability of egg at 100 ug/ml measured 7 to 12 days after emergence; assay type: functional, organism-based
Diaphorina citri [8] = assay: Inhibition of reproduction in fifth-instar nymphs of Diaphorina citri in flush of citrus plants assessed as fecundity of egg at 32 to 64 ug/ml measured 4 to 6 days after emergence relative to control; assay type: functional; parameters: scale not given: the % may be the effect or the level left
Diaphorina citri [9] = assay: Ovicidal activity against Diaphorina citri in 2 to 3 months old citrus plant assessed as inhibition of old egg hatch at 128 ug/mL by leaf dip bioassay; assay type: functional; conditions: foliar
Diaphorina citri [10] = assay: Ovicidal activity against Diaphorina citri in 2 to 3 months old citrus plant assessed as inhibition of egg hatch measured 0 to 48 hr prior egg laying by residual contact bioassay; assay type: functional
Diaphorina citri [11] = assay: Inhibition of reproduction in fifth-instar nymphs of Diaphorina citri in flush of citrus plants assessed as fecundity of egg at 32 to 64 ug/ml measured 7 to 12 days after emergence relative to control; assay type: functional, organism-based
Diaphorina citri [12] = assay: Inhibition of reproduction in fifth-instar nymphs of Diaphorina citri in flush of citrus plants assessed as viability of egg at 100 ug/ml measured 0 to 3 days after emergence; assay type: functional, organism-based
Diaphorina citri [13] = assay: Insecticidal activity against fifth-instar nymphs of Diaphorina citri nymph in flush of citrus plants assessed as mortality measured on fifth-instar stage after 48 hr; assay type: functional
Diaphorina citri [14] = assay: Insecticidal activity against first-instar nymphs of Diaphorina citri nymph in flush of citrus plants assessed as mortality measured on second-instar stage after 48 hr; assay type: functional
Diaphorina citri [15] = assay: Insecticidal activity against fourth-instar nymphs of Diaphorina citri nymph in flush of citrus plants assessed as mortality measured on fifth-instar stage after 48 hr; assay type: functional
Diaphorina citri [16] = assay: Ovicidal activity against Diaphorina citri in 2 to 3 months old citrus plant assessed as inhibition of old egg hatch at 4 to 8 ug/mL by leaf dip bioassay; assay type: functional, organism-based
Diaphorina citri [17] = assay: Inhibition of reproduction in fifth-instar nymphs of Diaphorina citri in flush of citrus plants assessed as fecundity of egg at 100 ug/ml measured 4 to 6 days after emergence; assay type: functional, organism-based
Diaphorina citri [18] = assay: Inhibition of reproduction in fifth-instar nymphs of Diaphorina citri in flush of citrus plants assessed as fecundity of egg at 100 ug/ml measured 7 to 12 days after emergence; assay type: functional, organism-based
Diaphorina citri [19] = assay: Inhibition of reproduction in fifth-instar nymphs of Diaphorina citri in flush of citrus plants assessed as viability of egg at 64 ug/ml measured 10 to 12 days after emergence relative to control; assay type: functional, organism-based
Diaphorina citri [20] = assay: Inhibition of reproduction in fifth-instar nymphs of Diaphorina citri in flush of citrus plants assessed as viability of egg at 32 to 64 ug/ml measured 0 to 3 days after emergence relative to control; assay type: functional
Diaphorina citri [21] = assay: Insecticidal activity against third- instar nymphs of Diaphorina citri nymph in flush of citrus plants assessed as mortality measured on fourth-instar stage after 48 hr; assay type: functional
Diaphorina citri [22] = assay: Ovicidal activity against Diaphorina citri in 2 to 3 months old citrus plant assessed as inhibition of egg hatch measured 49 to 96 hr after egg laying by leaf dip bioassay; assay type: functional
Diaphorina citri [23] = assay: Insecticidal activity against second-instar nymphs of Diaphorina citri nymph in flush of citrus plants assessed as mortality measured on third-instar stage after 48 hr; assay type: functional
Diaphorina citri [24] = assay: Inhibition of reproduction in fifth-instar nymphs of Diaphorina citri in flush of citrus plants assessed as viability of egg at 100 ug/ml measured 4 to 6 days after emergence; assay type: functional, organism-based
Diaphorina citri [25] = assay: Insecticidal activity against Diaphorina citri assessed as mortality at 100 ug/ml applied topically; assay type: functional, organism-based
Diaphorina citri [26] = assay: Inhibition of reproduction in fifth-instar nymphs of Diaphorina citri in flush of citrus plants assessed as viability of egg at 100 ug/ml applied topically; assay type: functional, organism-based
Diaphorina citri [27] = assay: Inhibition of reproduction in fifth-instar nymphs of Diaphorina citri in flush of citrus plants assessed as viability of egg at 64 ug/ml measured 4 to 6 days after emergence relative to control; assay type: functional
Diaphorina citri [28] = assay: Inhibition of reproduction in fifth-instar nymphs of Diaphorina citri in flush of citrus plants assessed as fecundity of egg at 32 to 64 ug/ml measured 0 to 3 days after emergence relative to control; assay type: functional; parameters: scale not given: the % may be the effect or the level left

## CC(COc1ccc(Oc2ccccc2)cc1)Oc1ccccn1 (stereo unspecified) [PYRIPROXYFEN]
Diaphorina citri [1]
  inhibition: Dose-dependent effect
Diaphorina citri [1]; foliar
  LC50: 18.4 µg/mL (≈ 57.4 µM)
Diaphorina citri [2]
  Activity: Active
Diaphorina citri [3]
  Activity: Active
Diaphorina citri [4]
  inhibition at 64 µg/mL: 70%
Diaphorina citri [5]
  Activity: inactive
Diaphorina citri [6]
  Activity: 83%
Diaphorina citri [7]
  Activity: inactive
Diaphorina citri [8]
  Activity: 64%
Diaphorina citri [9]
  inhibition at 128 µg/mL: > 90%
Diaphorina citri [10]
  LC50: 32.4 µg/mL (≈ 101 µM)
  inhibition: Dose-dependent effect
Diaphorina citri [11]
  Activity: inactive
Diaphorina citri [12]
  Activity: Active
Diaphorina citri [13]
  LC50: 51.3 µg/mL (≈ 160 µM)
Diaphorina citri [14]
  LC50: 17.6 µg/mL (≈ 54.8 µM)
Diaphorina citri [15]
  LC50: 44.3 µg/mL (≈ 138 µM)
Diaphorina citri [16]
  inhibition: Active
Diaphorina citri [17]
  Activity: Active
Diaphorina citri [18]
  Activity: inactive
Diaphorina citri [19]
  Activity: inactive
Diaphorina citri [20]
  Activity: 69%
Diaphorina citri [21]
  LC50: 25.2 µg/mL (≈ 78.6 µM)
Diaphorina citri [22]
  inhibition: Dose-dependent effect
Diaphorina citri [22]; foliar
  LC50: 37 µg/mL (≈ 115 µM)
Diaphorina citri [23]
  LC50: 21.6 µg/mL (≈ 67.1 µM)
Diaphorina citri [24]
  Activity: Active
Diaphorina citri [25]
  Activity: inactive
Diaphorina citri [26]
  Activity: Active
Diaphorina citri [27]
  Activity: 59%
Diaphorina citri [28]
  Activity: 58%

Reference: ChEMBL document CHEMBL3045744, “Effect of pyriproxyfen, a juvenile hormone mimic, on egg hatch, nymph development, adult emergence and reproduction of the Asian citrus psyllid, Diaphorina citri Kuwayama” (2010)
